Publication PMC4872164, “Therapeutic Blockade of Immune Complex-Mediated Glomerulonephritis by Highly Selective Inhibition of Bruton’s Tyrosine Kinase” (Scientific Reports, 2016)

Target: Bruton's tyrosine kinase (BTK) (Homo sapiens, UniProt Q06187)
Experiment: TR-FRET LanthaScreen binding assay (affinity, kinact/Ki […] ^-1 s^-1); BTK enzyme IC50; co-crystallization and mass spectrometry (not shown)
Format: biochemical

Bruton's tyrosine kinase (BTK), sequence (Q06187 2-659): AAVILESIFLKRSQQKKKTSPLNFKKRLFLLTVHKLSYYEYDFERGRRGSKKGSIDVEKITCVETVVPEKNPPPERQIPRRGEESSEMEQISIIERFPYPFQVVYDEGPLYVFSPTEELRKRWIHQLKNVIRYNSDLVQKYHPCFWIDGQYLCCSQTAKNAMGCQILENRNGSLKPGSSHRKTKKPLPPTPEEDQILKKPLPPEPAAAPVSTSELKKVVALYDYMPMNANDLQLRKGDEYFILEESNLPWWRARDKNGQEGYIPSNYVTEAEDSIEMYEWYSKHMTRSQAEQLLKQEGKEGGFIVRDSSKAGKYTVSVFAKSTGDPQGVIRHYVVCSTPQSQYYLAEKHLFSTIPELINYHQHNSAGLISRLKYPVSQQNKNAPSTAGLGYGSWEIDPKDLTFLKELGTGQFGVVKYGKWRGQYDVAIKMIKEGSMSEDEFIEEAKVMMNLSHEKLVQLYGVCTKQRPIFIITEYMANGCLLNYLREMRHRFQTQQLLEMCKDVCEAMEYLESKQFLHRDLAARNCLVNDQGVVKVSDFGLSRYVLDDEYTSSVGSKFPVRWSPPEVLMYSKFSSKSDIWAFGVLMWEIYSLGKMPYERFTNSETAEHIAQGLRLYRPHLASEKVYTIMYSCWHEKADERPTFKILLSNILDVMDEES

Q: With BI-BTK-1 as the substance, how does the IC50 read?
A: The IC50 was 0.9 nM.
